Data published in patent US20080176744A1 (priority 2005, published 2008).

System: Pyricularia oryzae
Format: cell-based
Details: 125 ppm, microtiter plate, absorption at 405 nm on the seventh day after inoculation

In the case of `CCCCCCCCc1c(N)nc(SC)nc1CC` [I-3, 6-ethyl-2-methylsulfanyl-5-octylpyrimidin-4-ylamine], the “growth (relative growth of the pathogen)” value is reported as “inhibited completely”.
